{
  "source": "ChEMBL document CHEMBL2029324",
  "about": "“A small molecule regulates hairpin structures in d(CGG) trinucleotide repeats” (Bioorg Med Chem Lett, 2012)",
  "type_in_all_cases": "nucleic-acid assay",
  "key": {"Nucleic Acid [1]": {"system": "Nucleic Acid", "assay": "Binding affinity to d(CGG)10 DNA assessed as increase in strong positive peak by CD-UV analysis"}, "Nucleic Acid [2]": {"system": "Nucleic Acid", "assay": "Binding affinity to d(CCG)10 DNA assessed as increase in melting temperature at 5 to 20 uM"}, "Nucleic Acid [3]": {"system": "Nucleic Acid", "assay": "Binding affinity to d(CGG)10 DNA assessed as decrease in signal intensity by CD-UV analysis"}, "Nucleic Acid [4]": {"system": "Nucleic Acid", "assay": "Binding affinity to d(CGG)10 DNA assessed as increase in positive induced CD at 5 to 20 uM by CD-UV analysis"}, "Nucleic Acid [5]": {"system": "Nucleic Acid", "assay": "Binding affinity to d(CCG)10 DNA assessed as inhibition of Taq polymerase-mediated DNA replication at 20 uM"}, "Nucleic Acid [6]": {"system": "Nucleic Acid", "assay": "Binding affinity to d(CGG)10 DNA assessed as hairpin loop formation at 1 to 30 uM by PAGE analysis"}, "Nucleic Acid [7]": {"system": "Nucleic Acid", "assay": "Binding affinity to d(CGG)10 DNA assessed as inhibition of Taq polymerase at first (CGG)10 repeat region from 3'-end of the template at increasing concentration"}, "Nucleic Acid [8]": {"system": "Nucleic Acid", "assay": "Binding affinity to d(CGG)10 DNA assessed as formation of stable compound-DNA hairpin loop of the template at increasing compound concentration"}, "Nucleic Acid [9]": {"system": "Nucleic Acid", "assay": "Binding affinity to d(CCG)10 DNA assessed as hairpin loop formation at 30 uM by PAGE analysis"}, "Nucleic Acid [10]": {"system": "Nucleic Acid", "assay": "Binding affinity to d(CGG)10 DNA assessed as inhibition of Taq polymerase-mediated DNA replication"}, "Nucleic Acid [11]": {"system": "Nucleic Acid", "assay": "Binding affinity to d(CGG)10 DNA assessed as inhibition of Taq polymerase at first and fifth part of the (CGG)10 repeat region from 3'-end of the template at 5 uM"}, "Nucleic Acid [12]": {"system": "Nucleic Acid", "assay": "Binding affinity to d(CGG)10 DNA assessed as formation of compound-DNA hairpin loop of the template at low compound concentration"}, "Nucleic Acid [13]": {"system": "Nucleic Acid", "assay": "Binding affinity to d(CGG)10 DNA assessed as thermal denaturation at 100 degC and 20 uM"}},
  "note": "The source made the active and inactive calls. No cut-off for these calls is given here.",
  "data": [
    {"smiles": "Cc1ccc2ccc(NC(=O)OCCCNCCCOC(=O)Nc3ccc4ccc(C)nc4n3)nc2n1", "values": [
      {"measurement": "Activity", "setting": "Nucleic Acid [1]", "result": "Dose-dependent effect"},
      {"measurement": "Activity", "setting": "Nucleic Acid [2]", "result": "inactive"},
      {"measurement": "Activity", "setting": "Nucleic Acid [3]", "result": "Dose-dependent effect"},
      {"measurement": "Activity", "setting": "Nucleic Acid [4]", "result": "Active"},
      {"measurement": "Activity", "setting": "Nucleic Acid [5]", "result": "inactive"},
      {"measurement": "Activity", "setting": "Nucleic Acid [6]", "result": "Active"},
      {"measurement": "Activity", "setting": "Nucleic Acid [7]", "result": "Active"},
      {"measurement": "Activity", "setting": "Nucleic Acid [8]", "result": "Active"},
      {"measurement": "Activity", "setting": "Nucleic Acid [9]", "result": "inactive"},
      {"measurement": "Activity", "setting": "Nucleic Acid [10]", "result": "Dose-dependent effect"},
      {"measurement": "Activity", "setting": "Nucleic Acid [11]", "result": "Active"},
      {"measurement": "Activity", "setting": "Nucleic Acid [12]", "result": "Active"},
      {"measurement": "Activity", "setting": "Nucleic Acid [13]", "result": "inactive"}
    ]}
  ]
}
